Publication PMC6152226, “Composition and Antioxidant, Antienzymatic and Antimicrobial Activities of Volatile Molecules from Spanish Salvia lavandulifolia (Vahl) Essential Oils” (Molecules : A Journal of Synthetic Chemistry and Natural …, 2017)
pIC50: −log10 of the molar value. In brackets after ≈: the same amount, converted by molar mass. Like-named read-outs stand apart in the source and are kept apart here.

Key:
[1] = Oxygen radical absorbance capacity (ORAC) assay; conditions: individual compounds, maximum assay concentration 100 mM
Method: (§1) Five antioxidant methods were performed with SlEOs and their main individual compounds in triplicate. In the oxygen radical absorbance capacity (ORAC) assay, peroxyl radicals are produced by 2,2′-Azobis(2-methylpropionamidine) dihydrochloride (AAPH), which reacts with fluorescein giving a non-fluorescent compound [61]. The antioxidants are able to scavenge these peroxyl radicals. Trolox was used as the reference antioxidant. The 2,2-diphenyl-1-picrylhydrazyl (DPPH) and 2,2′-azino-bis(3-ethylbenzothiazoline-6-sulphonic acid) (ABTS) methods measure the bleaching produced by the reduction of the coloured DPPH and ABTS radicals. Trolox was used as the reference antioxidant. The RdP method measure the ability to reduce ferric ions, according to the method of Oyaizu. Ascorbic acid was the reference antioxidant used in this method. The ChP method measured the ability to chelate Fe^2+ ion, following the method of Miguel et al.. EDTA was used as reference antioxidant. The SlEOs were diluted in 100% ethanol in the DPPH, ABTS, RdP and ChP methods, whereas in the ORAC method, SlEOs were diluted in 15% ethanol to obtain a final concentration of 5% ethanol in the reaction medium. All measurements were made at the end-point of the reaction, except in the ORAC method (Figure S5).

[2] = DPPH radical method; conditions: individual compounds; maximum assay concentration 100 mM
Method: as §1

[3] = ABTS radical method; conditions: individual compounds; maximum assay concentration 100 mM
Method: as §1

[4] = Reducing power (RdP) method; conditions: individual compounds; maximum assay concentration 100 mM
Method: as §1

[5] = Chelating power (ChP) method; conditions: individual compounds; maximum assay concentration 100 mM
Method: as §1

[6] = molecular target: T1, LOX (Glycine max, UniProt P08170); assay: LOX inhibition assay; format: biochemical, Glycine max (soybean); conditions: for DI (%) of LOX: at 514.2 µg/mL, could not reach 50% inhibition
T1 construct: purchased Sigma-Aldrich
T1 sequence (P08170 whole entry): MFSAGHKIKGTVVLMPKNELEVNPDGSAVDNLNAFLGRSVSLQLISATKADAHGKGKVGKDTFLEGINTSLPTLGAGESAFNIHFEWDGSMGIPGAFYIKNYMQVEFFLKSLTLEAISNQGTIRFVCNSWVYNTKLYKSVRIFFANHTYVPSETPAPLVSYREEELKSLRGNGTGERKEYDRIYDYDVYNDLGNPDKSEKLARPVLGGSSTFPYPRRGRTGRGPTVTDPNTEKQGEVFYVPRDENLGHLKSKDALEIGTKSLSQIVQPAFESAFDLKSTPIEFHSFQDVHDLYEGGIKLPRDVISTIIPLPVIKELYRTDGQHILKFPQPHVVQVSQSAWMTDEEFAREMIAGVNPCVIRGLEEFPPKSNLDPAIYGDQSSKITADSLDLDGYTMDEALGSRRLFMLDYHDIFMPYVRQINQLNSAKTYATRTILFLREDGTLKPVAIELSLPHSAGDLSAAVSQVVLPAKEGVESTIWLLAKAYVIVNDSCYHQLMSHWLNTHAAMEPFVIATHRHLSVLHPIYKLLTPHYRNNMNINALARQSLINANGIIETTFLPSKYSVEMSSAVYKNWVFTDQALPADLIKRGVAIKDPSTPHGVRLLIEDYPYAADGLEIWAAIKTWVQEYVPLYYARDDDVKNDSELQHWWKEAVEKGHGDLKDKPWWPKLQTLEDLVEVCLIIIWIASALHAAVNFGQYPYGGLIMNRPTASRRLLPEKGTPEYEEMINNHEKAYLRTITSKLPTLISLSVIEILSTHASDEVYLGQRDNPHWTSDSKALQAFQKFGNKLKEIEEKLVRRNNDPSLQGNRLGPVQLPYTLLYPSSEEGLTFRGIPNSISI
Method: A LOX preparation from Glycine max (soybean) was acquired from Sigma-Aldrich. LOX inhibitory activity was determined as previously reported, based on the absorption at 234 nm of the hydroperoxyde conjugated dienes (ε = 25,000 M^−1 cm^−1), which are generated from the oxidation of linoleic acid in the presence of oxygen and LOX. This assay was carried out on a double beam Lambda 35 spectrophotometer (PerkinElmer, Madrid, Spain) with the UV-Winlab software, at 25 °C.
(§2) The DI in both antienzymatic assays were calculated using Equation (1):(1) DI (%)= ν0−νi/ν0 × 100 where v0 and v1 are the steady state rates without and with inhibitor, respectively. The inhibitions of LOX were reported as DI at 150 µg/mL of each SlEO. […] To calculate the IC50 values, data of DI (%) of seven different concentrations of each SlEO were plotted and fitted by non-linear regression according to Equation (2) using Sigma Plot software (systatsoftware.com) (Figure S6). The inhibitions of LOX and AChE by individual compounds were reported as IC50 or DI, depending on their inhibition capacities and solubilities.
(§3) (2) DI (%)= DImax [I]0/IC50+ [I]0

[7] = molecular target: T2, AChE VI-S (Electrophorus electricus, UniProt O42275); assay: biochemical; conditions: for concentration at which 15% inhibition of AChE reached: IC50 not calculable due to low water solubility
T2 construct: purchased Sigma-Aldrich
T2 sequence (O42275 24-633): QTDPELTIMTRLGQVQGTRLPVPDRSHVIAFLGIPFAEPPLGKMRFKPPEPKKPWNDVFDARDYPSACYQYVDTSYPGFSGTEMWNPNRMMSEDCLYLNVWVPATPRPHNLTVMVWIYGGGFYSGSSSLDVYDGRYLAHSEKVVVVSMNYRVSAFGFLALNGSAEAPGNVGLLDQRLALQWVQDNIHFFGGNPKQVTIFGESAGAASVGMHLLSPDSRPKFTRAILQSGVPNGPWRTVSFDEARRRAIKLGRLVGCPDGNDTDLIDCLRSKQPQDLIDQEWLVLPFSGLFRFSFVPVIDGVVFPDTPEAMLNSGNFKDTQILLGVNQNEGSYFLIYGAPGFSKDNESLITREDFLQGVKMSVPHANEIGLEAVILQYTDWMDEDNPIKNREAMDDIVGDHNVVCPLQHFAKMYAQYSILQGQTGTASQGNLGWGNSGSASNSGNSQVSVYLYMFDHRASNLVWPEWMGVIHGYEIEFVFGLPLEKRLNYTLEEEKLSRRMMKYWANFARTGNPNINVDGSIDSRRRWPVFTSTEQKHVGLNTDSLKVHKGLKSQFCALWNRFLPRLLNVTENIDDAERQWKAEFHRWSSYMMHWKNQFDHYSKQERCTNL
Method: AChE VI-S from Electrophorus electricus was purchased from Sigma-Aldrich. AChE inhibitory activity was measured in triplicate using a 96-well microplate reader at 25 °C, according to Ellman’s method. This enzyme hydrolyzes acetylthiocholine to acetate and thiocholine, which reacts with 5,5-dithio-bis-(2-nitrobenzoic acid) (DTNB) producing a coloured compound with absorbance at 412 nm. The reaction was measured for 10 min at 25 °C, using a 96-well microplate reader. SlEOs were diluted in 15% ethanol, to obtain a final concentration of 5% ethanol in the reaction medium.
as §2, §3

[8] = tested on: Escherichia coli ATCC 8739; assay: Broth microdilution MIC and MBC; format: cell-based; conditions: for MIC: ATCC8739, 24 h
Method: (§4) The following test microorganisms used in this work were acquired from Sigma-Aldrich: Pseudomonas aeruginosa ATCC 9027, Escherichia coli ATCC 8739, Staphylococcus aureus ATCC 6538, and Candida albicans ATCC 10231. The stock cultures were preserved in TSB or YPD with 15% glycerol, for bacteria and yeast cells, respectively, at −80 °C. Isolated colonies from an 18- to 24-h agar plate were transferred to MHB for bacteria and RPMI-1640 for C. albicans.
(§5) MIC were determined using the broth microdilution method in 96-well microplates, according to the M07-A10 [69] standard for bacteria and the M27-A3 [70] for Candida. Briefly, two-fold dilutions of a 40 µL/mL SlEOs were prepared to obtain a final concentration range of 0.08–20 µL/mL with 0.5% Tween®80 and 2.5% DMSO. The antimicrobial activities of main compounds were also tested in the concentration range of 0.12–15 mM with 0.5% Tween®80 and 2.5% DMSO as solvent. The final strain concentration was 5 × 10^5 CFU/mL in MHB for the bacteria and 0.5−2.5 × 10^3 in RPMI-1640 for the yeast. These plates were incubated for 24 h for bacteria and 48 h for Candida, both at 35 ± 1 °C, under aerobic conditions on a plate shaker at 100 rpm. Streptomycin (0.06–8.00 µg/mL) and fluconazole (0.13–16 µg/mL) were used as reference antibacterial and antifungal compound, respectively. […] MIC is defined as the lowest concentration of EO or individual compound with no visible growth of microorganisms, at the end of the incubation period. […] All determinations were carried out in triplicate.

[9] = tested on: Staphylococcus aureus ATCC 6538; assay: Broth microdilution MIC and MBC; format: cell-based; conditions: for MIC: ATCC6538, 24 h
Method: as §4, §5

[10] = tested on: Candida albicans ATCC 10231; assay: Broth microdilution MIC and MFC; format: cell-based; conditions: for MIC: ATCC10231, 48 h
Method: as §4, §5

Row | Compound | ORAC [1] | DPPH [2] | ABTS [3] | RdP [4] | ChP [5] | DI (%) of LOX [6] [%] | MIC ([8]; read-out: MIC) [µg/mL] | MBC ([8]; ATCC8739, read-out: MBC) [µg/mL] | MIC ([9]; read-out: MIC) [µg/mL] | MBC ([9]; ATCC6538, read-out: MBC) [µg/mL] | MIC ([10]; read-out: MIC) [µg/mL] | MFC ([10]; ATCC10231, read-out: MFC) [µg/mL] | further results
1 | CC1=CCC(O)(C(C)C)CC1 (stereo not drawn) [Terpinen-4-ol] | 356.0 ± 13.6 µmol TE/mmol X | N/D (Activity lower than 0.05 units at a maximum assay concentration of 100 mM) | 0.3 ± 0.0 µmol TE/mmol X | N/D (Activity lower than 0.05 units at a maximum assay concentration of 100 mM) | 1.7 ± 0.1 µmol EDTAE/mmol X | 29.6 ± 1.0 | 2300 (≈ 14.9 mM) | 2300 (≈ 14.9 mM) | 1100 (≈ 7.13 mM) | 2300 (≈ 14.9 mM) | > 2300 | > 2300 | concentration at which 15% inhibition of AChE reached [7]: 582.4 ± 38.1 µg/mL
2 | C=C1C2CCC(C2)C1(C)C (stereo not drawn) [Camphene] | N/D (Activity lower than 0.05 units at a maximum assay concentration of 100 mM) | N/D (Activity lower than 0.05 units at a maximum assay concentration of 100 mM) | 0.1 ± 0.0 µmol TE/mmol X | 0.5 ± 0.0 µmol AAE/mmol X | 1.6 ± 0.1 µmol EDTAE/mmol X |  |  |  |  |  |  |  | concentration at which 15% inhibition of AChE reached [7]: 42.4 ± 3.7 µg/mL; MBC ([8]; ATCC8739): > 2000 µg/mL; MIC [8]: > 2000 µg/mL; MBC ([9]; ATCC6538): > 2000 µg/mL; MIC [9]: > 2000 µg/mL; MFC ([10]; ATCC10231): > 2000 µg/mL; MIC [10]: > 2000 µg/mL
3 | CC1=CCC2CC1C2(C)C (stereo not drawn) [α-Pinene] | N/D (Activity lower than 0.05 units at a maximum assay concentration of 100 mM) | N/D (Activity lower than 0.05 units at a maximum assay concentration of 100 mM) | N/D (Activity lower than 0.05 units at a maximum assay concentration of 100 mM) | N/D (Activity lower than 0.05 units at a maximum assay concentration of 100 mM) | 16.6 ± 1.1 µmol EDTAE/mmol X |  | 500 (≈ 3.67 mM) | 1000 (≈ 7.34 mM) | 2100 (≈ 15.4 mM) | > 2100 | 500 (≈ 3.67 mM) | 500 (≈ 3.67 mM) | pIC50 [7]: 2.48
4 | C=CC(C)(O)CCC=C(C)C (stereo not drawn) [Linalool] | 341.9 ± 18.5 µmol TE/mmol X | N/D (Activity lower than 0.05 units at a maximum assay concentration of 100 mM) | 0.1 ± 0.0 µmol TE/mmol X | N/D (Activity lower than 0.05 units at a maximum assay concentration of 100 mM) | 96.9 ± 5.8 µmol EDTAE/mmol X |  | 1100 (≈ 7.13 mM) | 2300 (≈ 14.9 mM) | 600 (≈ 3.89 mM) | 1100 (≈ 7.13 mM) | 2300 (≈ 14.9 mM) | 2300 (≈ 14.9 mM) | pIC50 [6]: 2.48
5 | CC1=CC[C@@H](C(C)(C)O)CC1 [α-Terpineol] | 310.0 ± 16.6 µmol TE/mmol X | N/D (Activity lower than 0.05 units at a maximum assay concentration of 100 mM) | 0.2 ± 0.0 µmol TE/mmol X | N/D (Activity lower than 0.05 units at a maximum assay concentration of 100 mM) | 4.9 ± 0.3 µmol EDTAE/mmol X | 17.4 ± 0.2 | 2400 (≈ 15.6 mM) | 2400 (≈ 15.6 mM) | 600 (≈ 3.89 mM) | 1100 (≈ 7.13 mM) | > 2400 | > 2400 | 
6 | CC(=O)OC1CC2CCC1(C)C2(C)C (stereo not drawn) [Bornyl acetate] | N/D (Activity lower than 0.05 units at a maximum assay concentration of 100 mM) | N/D (Activity lower than 0.05 units at a maximum assay concentration of 100 mM) | N/D (Activity lower than 0.05 units at a maximum assay concentration of 100 mM) | N/D (Activity lower than 0.05 units at a maximum assay concentration of 100 mM) | N/D (Activity lower than 0.05 units at a maximum assay concentration of 100 mM) |  | > 2900 | > 2900 | 2900 | > 2900 | > 2900 | > 2900 | pIC50 [6]: 3.42
7 | CC12CCC(CC1)C(C)(C)O2 [1,8-Cineole] | N/D (Activity lower than 0.05 units at a maximum assay concentration of 100 mM) | N/D (Activity lower than 0.05 units at a maximum assay concentration of 100 mM) | N/D (Activity lower than 0.05 units at a maximum assay concentration of 100 mM) | N/D (Activity lower than 0.05 units at a maximum assay concentration of 100 mM) | 1.1 ± 0.1 µmol EDTAE/mmol X | 30.9 ± 1.1 | > 2300 | > 2300 | > 2300 | > 2300 | > 2300 | > 2300 | ORAC ([1]; listed as 1,8-cineole): did not show any ORAC antioxidant activity; pIC50 [7]: 3.64
